Marks after values point to notes of the source that are not given here.
Tests used:
hGCGR HFD/STZ mice = test: Antihyperglycemic efficacy in hGCGR HFD/STZ mice (acute, chronic, combination with des-fluoro-sitagliptin); type: in vivo, hGCGR mouse
Description: The present study made use of a line of hGCGR-expressing mouse (“hGCGR mouse”) generated previously by substituting the hGCGR gene for the mouse GCGR gene. These mice were crossed with C57BL/6J.ob/+ mice (Jackson Laboratories, Bar Harbor, ME) to obtain an hGCGR.ob/+ mouse line. The hGCGR.ob/+ mice were then intercrossed to obtain hGCGR.ob/ob, hGCGR.ob/+, and hGCGR.+/+ mice (with the hGCGR.ob/+ and hGCGR.+/+ mice serving as littermate controls). […] obese (DIO) hGCGR mice were generated by maintaining hGCGR mice on a high-fat diet (HFD) in which 45–60% of calories were in fat (Product S3282, Bio-Serv, Frenchtown, NJ). High-fat-diet-streptozotocin-treated (HFD/STZ) diabetic mice were generated in-house as previously described.
Acute glucose lowering was studied in non-fasted hGCGR.ob/ob mice and HFD/STZ mice administered single doses p.o. of 1, 3 and 10 mg/kg GRA1 in 10 mL/kg 0.5% aqueous methylcellulose. Animals were fasted during the interval between dosing and the final blood glucose measurement. Glucose was measured in blood from tail bleeds using a OneTouch glucometer. In the experiments with hGCGR HFD/STZ mice, treatment groups were matched with respect to body weight and blood glucose levels.
Animals were dosed chronically with GRA1 and the DPP-4 inhibitor des-fluoro-sitagliptin by administering these agents as food admixtures. The admixtures were prepared in-house and by Research Diets (New Brunswick, NJ), with drug concentrations adjusted weekly on the basis of average food consumption and animal weight to provide targeted daily doses. In the GRA1 experiments, the targeted doses were 3, 6, 10, and 30 mg/kg•day. In des-fluoro-sitagliptin experiments, the targeted dose was 200 mg/kg•day, a relatively high amount necessary because this compound has a half-life in rodents of 1–2 h.
Plasma glucagon and active GLP-1 were measured using commercial ELISA kits (Linco Research Immunoassay, St. Charles, MO). […] Plasma insulin was determined by ELISA with a commercial kit (ALPCO Diagnostics, Windham, NH). Plasma concentrations of glycated hemoglobin A1c (HbA1c) were measured using a Micromat II test kit from Bio-Rad Laboratories (Hercules, CA). Total cholesterol, low-density lipoprotein cholesterol (LDL-c) and non-LDL-c, and aspartate aminotransferase were measured using a Roche P Modular Clinical Chemistry analyzer (Indianapolis, IN).
Figure 5 GRA1 lowers glucose in hGCGR HFD/STZ mice and further enhances the efficacy of a DPP-4 inhibitor. (A) Mean (±SEM) blood glucose hGCGR HFD/STZ mice treated with a single dose of 1, 3, or 10 mg/kg GRA1. (B) Non-fasted blood glucose concentrations in hGCGR HFD/STZ mice treated for 6 weeks with 10 mg/kg·day GRA1, 200 mg/kg·day des-fluoro-sitagliptin (des-F-sita), or the two agents in combination. (Additional data from this study are in Table 4.) *p<0.05, **p<0.01, and ***p<0.001 versus HFD/STZ controls; ^#non-significant (p>0.05) versus non-STZ controls; n = 8–15 animals per group.

rhesus monkey liver = test: Hepatic gene expression (Affymetrix microarray of liver biopsies) in rhesus monkeys; type: in vivo; details: 30 mg/kg twice daily
Method: Hepatic gene expression was assessed by liver biopsy in adult rhesus monkeys that had been treated twice daily for 1 and 6 days with 30 mg/kg GRA1 or vehicle. The compound was administered to the animals orally in yogurt or a similar treat while they were housed in their home cages. The animals were fasted for approximately 16 h prior to performing liver biopsies laparoscopically, under anesthesia. On biopsy days, animals received their morning doses of GRA1 2 h before the biopsies were performed.
Total RNA was processed for Affymetrix microarray analysis as previously described. Briefly, total RNA was isolated from frozen tissues after homogenizing in TRIzol reagent (Invitrogen, Carlsbad, CA) and processed using RNeasy kits (QIAGEN, Valencia, CA) according to manufacturers' instructions. Sample amplification, labeling, and microarray processing were performed by the Covance Genomics Laboratory in Seattle, WA using the Affymetrix catalog Rhesus array (Affymetrix, Santa Clara, CA). One-way ANOVA analyses were performed with Matlab (The Mathworks, Natick, MA). Probesets had to pass a pre-filter of Affymetrix MAS5 present call p value <0.05 in >50% of the samples to qualify for further analysis. Differentially expressed genes (probesets) were selected with 1.2-fold change and ANOVA p value <0.05.

in vivo = details: hGCGR.ob/ob, mouse, 3 mg/kg

COc1ccc2cc(-c3cc(-c4cc(C(F)(F)F)ccc4F)nn3[C@@H](C)c3ccc(C(=O)NCCC(=O)O)cc3)ccc2c1 [GRA1, N-[4-((1S)-1-{3-(2-fluoro-5-trifluoromethylphenyl)-5-[6-methoxynaphth-2-yl]-1H-pyrazol-1-yl}ethyl)benzoyl]-β-alanine]
HbA1c (hGCGR HFD/STZ mice; 5 weeks of treatment, GRA1 10 mg/kg, Des-F-sita 200 mg/kg, control diet 6.1±0.4): 5.6±0.4% | 6-h fasting blood glucose (hGCGR HFD/STZ mice; 5 weeks of treatment, GRA1 10 mg/kg, Des-F-sita 200 mg/kg, control diet 323±33): 297 ± 39 mg/dL | Antihyperglycemic effect during chronic dosing (non-fasted blood glucose) (hGCGR HFD/STZ mice; 6 weeks, GRA1 10 mg/kg·day, des-fluoro-sitagliptin 200 mg/kg·day): significant and sustained | Liver Triglyceride (hGCGR HFD/STZ mice; 6 weeks, necropsy tissue, GRA1 10 mg/kg, Des-F-sita 200 mg/kg, control diet 143±10): 163 ± 11 µg/mg | Free fatty acid (hGCGR HFD/STZ mice; 6 weeks, terminal plasma, GRA1 10 mg/kg, Des-F-sita 200 mg/kg, control diet 1.4±0.2): 1.3 ± 0.3 mM | Active GLP-1 (hGCGR HFD/STZ mice; 6 weeks, terminal plasma, GRA1 10 mg/kg, Des-F-sita 200 mg/kg, control diet 2.5±0.1): 2.7 ± 0.1 pM | Inactive GLP-1 (hGCGR HFD/STZ mice; 6 weeks, terminal plasma, GRA1 10 mg/kg, Des-F-sita 200 mg/kg, control diet 8.1±1.1): 8.6 ± 0.4 pM | Plasma glucagon (hGCGR HFD/STZ mice; 6 weeks, terminal plasma, GRA1 10 mg/kg, Des-F-sita 200 mg/kg, control diet 133±21): 209±24* pg/ml | Triglyceride (hGCGR HFD/STZ mice; 6 weeks, terminal plasma, GRA1 10 mg/kg, Des-F-sita 200 mg/kg, control diet 184±26): 145±22* mg/dL | Blood glucose after single dose versus non-diabetic controls (hGCGR HFD/STZ mice; single dose 10 mg/kg): comparable to those observed in non-diabetic control animals for 24 h | Effect on blood glucose, single dose (hGCGR HFD/STZ mice; single doses of 3 and 10 mg/kg): reduced blood glucose significantly and substantially | AASS (aminoadipate-semialdehyde synthase) hepatic expression, fold difference vs vehicle (rhesus monkey liver; Day 1): −2.0 fold | AGXT2L1 hepatic expression, fold difference vs vehicle (rhesus monkey liver; Day 1): −1.5 fold | ASL (argininosuccinate lyase) hepatic expression, fold difference vs vehicle (rhesus monkey liver; Day 1): −1.5 fold | BCKDHB hepatic expression, fold difference vs vehicle (rhesus monkey liver; Day 1): −1.4 fold | DDC (dopa decarboxylase) hepatic expression, fold difference vs vehicle (rhesus monkey liver; Day 1): −1.4 fold | FH (fumarate hydratase) hepatic expression, fold difference vs vehicle (rhesus monkey liver; Day 1): −1.2 fold | GCKR (glucokinase regulator) hepatic expression, fold difference vs vehicle (rhesus monkey liver; Day 1): 1.5 fold | GPT (alanine aminotransferase) hepatic expression, fold difference vs vehicle (rhesus monkey liver; Day 1): −1.5 fold | HPD (4-hydroxyphenylpyruvate dioxygenase) hepatic expression, fold difference vs vehicle (rhesus monkey liver; Day 1): −1.3 fold | KMO (kynurenine 3-monooxygenase) hepatic expression, fold difference vs vehicle (rhesus monkey liver; Day 1): −1.3 fold | OAT (ornithine aminotransferase) hepatic expression, fold difference vs vehicle (rhesus monkey liver; Day 1): −1.9 fold | SDS (serine dehydratase) hepatic expression, fold difference vs vehicle (rhesus monkey liver; Day 1): −8.8 fold | SDSL (serine dehydratase-like) hepatic expression, fold difference vs vehicle (rhesus monkey liver; Day 1): −1.6 fold | SLC7A2 hepatic expression, fold difference vs vehicle (rhesus monkey liver; Day 1): −1.8 fold | TAT (tyrosine aminotransferase) hepatic expression, fold difference vs vehicle (rhesus monkey liver; Day 1): −1.8 fold | ARG1 (arginase, liver) hepatic expression, fold difference vs vehicle (rhesus monkey liver; Day 1 (ns)): −1.1 fold | GCK (glucokinase) hepatic expression, fold difference vs vehicle (rhesus monkey liver; Day 1 (ns)): 2.4 fold | GLS2 (glutaminase 2) hepatic expression, fold difference vs vehicle (rhesus monkey liver; Day 1 (ns)): −1.3 fold | GOT1 hepatic expression, fold difference vs vehicle (rhesus monkey liver; Day 1 (ns)): −1.5 fold | PAH (phenylalanine hydroxylase) hepatic expression, fold difference vs vehicle (rhesus monkey liver; Day 1 (ns)): −1.5 fold | SLC1A2 hepatic expression, fold difference vs vehicle (rhesus monkey liver; Day 1 (ns)): −1.6 fold | AASS (aminoadipate-semialdehyde synthase) hepatic expression, fold difference vs vehicle (rhesus monkey liver; Day 6): −3.0 fold | AGXT2L1 hepatic expression, fold difference vs vehicle (rhesus monkey liver; Day 6): −1.8 fold | ARG1 (arginase, liver) hepatic expression, fold difference vs vehicle (rhesus monkey liver; Day 6): −1.3 fold | ASL (argininosuccinate lyase) hepatic expression, fold difference vs vehicle (rhesus monkey liver; Day 6): −1.6 fold | BCKDHB hepatic expression, fold difference vs vehicle (rhesus monkey liver; Day 6): −1.3 fold | FH (fumarate hydratase) hepatic expression, fold difference vs vehicle (rhesus monkey liver; Day 6): −1.2 fold | GCK (glucokinase) hepatic expression, fold difference vs vehicle (rhesus monkey liver; Day 6): 5.4 fold | GCKR (glucokinase regulator) hepatic expression, fold difference vs vehicle (rhesus monkey liver; Day 6): 1.3 fold | GLS2 (glutaminase 2) hepatic expression, fold difference vs vehicle (rhesus monkey liver; Day 6): −1.6 fold | GOT1 hepatic expression, fold difference vs vehicle (rhesus monkey liver; Day 6): −2.1 fold | GPT (alanine aminotransferase) hepatic expression, fold difference vs vehicle (rhesus monkey liver; Day 6): −1.3 fold | HPD (4-hydroxyphenylpyruvate dioxygenase) hepatic expression, fold difference vs vehicle (rhesus monkey liver; Day 6): −1.2 fold | KMO (kynurenine 3-monooxygenase) hepatic expression, fold difference vs vehicle (rhesus monkey liver; Day 6): −1.5 fold | OAT (ornithine aminotransferase) hepatic expression, fold difference vs vehicle (rhesus monkey liver; Day 6): −3.6 fold | PAH (phenylalanine hydroxylase) hepatic expression, fold difference vs vehicle (rhesus monkey liver; Day 6): −2.1 fold | SDS (serine dehydratase) hepatic expression, fold difference vs vehicle (rhesus monkey liver; Day 6): −27.1 fold | SLC1A2 hepatic expression, fold difference vs vehicle (rhesus monkey liver; Day 6): −7.6 fold | SLC7A2 hepatic expression, fold difference vs vehicle (rhesus monkey liver; Day 6): −2.4 fold | DDC (dopa decarboxylase) hepatic expression, fold difference vs vehicle (rhesus monkey liver; Day 6 (ns)): −1.1 fold | SDSL (serine dehydratase-like) hepatic expression, fold difference vs vehicle (rhesus monkey liver; Day 6 (ns)): −1.5 fold | TAT (tyrosine aminotransferase) hepatic expression, fold difference vs vehicle (rhesus monkey liver; Day 6 (ns)): −1.7 fold | concentration at 1 h (in vivo): 1120 ± 800 nM | concentration at 3 h (in vivo): 920 ± 100 nM

From article PMC3501516, “Anti-Diabetic Efficacy and Impact on Amino Acid Metabolism of GRA1, a Novel Small-Molecule Glucagon Receptor Antagonist” (PLoS ONE, 2012)
